Laboratory results from patent US20240174634A1, “Aldehyde Dehydrogenase Inhibitors and Their Therapeutic Use” (priority 2020, published 2024).

target: T1, ALDH2 (Homo sapiens, UniProt P05091); assay: Selectivity biochemical assay, NAD(P)H-Glo Detection System
T1 sequence (P05091 18-517): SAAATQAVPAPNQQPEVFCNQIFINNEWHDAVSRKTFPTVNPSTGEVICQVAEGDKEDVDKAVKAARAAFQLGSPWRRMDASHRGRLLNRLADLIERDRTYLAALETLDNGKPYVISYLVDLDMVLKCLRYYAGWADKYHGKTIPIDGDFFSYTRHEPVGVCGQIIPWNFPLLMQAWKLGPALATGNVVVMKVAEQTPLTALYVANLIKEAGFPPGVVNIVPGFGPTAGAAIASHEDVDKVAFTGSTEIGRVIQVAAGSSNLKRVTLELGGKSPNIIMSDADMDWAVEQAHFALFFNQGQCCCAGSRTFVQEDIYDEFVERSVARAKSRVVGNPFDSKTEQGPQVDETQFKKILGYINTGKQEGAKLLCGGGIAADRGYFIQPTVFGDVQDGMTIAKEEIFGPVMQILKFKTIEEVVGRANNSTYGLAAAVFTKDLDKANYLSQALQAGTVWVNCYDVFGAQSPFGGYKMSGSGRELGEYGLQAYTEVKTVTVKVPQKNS
Description: Materials: ALDH2 was purchased from Abnova. Tris(hydroxymethyl)aminomethane (Tris) was purchased from MP Biomedicals. TCEP, ethylenediaminetetraacetic acid (EDTA), propionaldehyde, DMSO and Tween-20 were purchased from Sigma. Nicotinamide adenine dinucleotide (NAD) was obtained from Abcam. The NAD(P)H-Glo™ Detection System was purchased from Promega. White, non-binding surface, 384 well plates were supplied by Corning (#3574).
Method: Inhibition of ALDH1A3 was assessed using the NAD(P)H-Glo™ Detection System (Cat. No. G9062) from Promega. This assay detects the production of NADH from NAD by ALDH1A3 via the coupled enzymatic conversion of a proluciferin reductase substrate to generate a luminescent signal. Inhibition of ALDH1A3 by small molecule inhibitors will result in reduction or abrogation of luminescence signal increase above background. Inhibition of ALDH1A1, ALDH1A2 and ALDH2 (selectivity assays) were assessed using the same assay.
Compounds were dosed into Corning 384 well assay plates using an Echo acoustic dispenser to give 10 point curves in a 3-fold dilution series. Compounds were dispensed from a 20 mM DMSO stock and initially screened at a top concentration of 20 μM (ALDH1A3) or 250 μM (ALDH1A1, ALDH1A2 & ALDH2). Enzyme was added to the plate in a 5 μL volume, according to the final concentrations in table 1 below, and pre-incubated with compound for 30 minutes at room temperature before the addition of 5 μL of the substrate (propionaldehyde) and cofactor (NAD), to effect final concentrations equal to the Km as shown in Table 1. The assay buffer used consisted of 40 mM Tris for 1A1 (pH 7.6), 1A2 (pH 7.6) and 1A3 (pH 9.0) and 10 mM Tris for ALDH2 (pH 8.0) supplemented with 1 mM TCEP, 0.01% Tween-20, 0.1 mM EDTA. The reaction mix was incubated at 26° C. on a shaking incubator for 30 minutes before being stopped by the addition of 10 μL of the Promega detection reagent and 100×IC50 of inhibitors of the respective isoforms. After stopping the reaction the plate was incubated for 60 minutes at room temperature and the luminescence signal read on a PheraStar FS microplate reader (BMG Labtech) and resulting IC50 values were calculated using Dotmatics software.
Enzyme, substrate and cofactor concentrations were selected to ensure the reaction ran under initial velocity conditions.

Compound	IC50
CN(CCOc1ccc2c(c1)CCC(=O)N2)C(CO)c1cccc(F)c1 (centres unmarked) [ALDHI-3003, 6-[2-[[1-(3-fluorophenyl)-2-hydroxy-ethyl]-methyl-amino]ethoxy]-3,4-dihydro-1H-quinolin-2-one]	≥ 100 µM
CCN(CC)CCN(CCOc1ccc2c(c1)CCC(=O)N2)Cc1ccccc1 [ALDHI-3004, 6-[2-[benzyl-[2-(diethylamino)ethyl]amino]ethoxy]-3,4-dihydro-1H-quinolin-2-one]	≥ 100 µM
O=C1CCc2cc(OCCN(CCO)Cc3cccnc3)ccc2N1 [ALDHI-3005, 6-[2-[2-hydroxyethyl(3-pyridylmethyl)amino]ethoxy]-3,4-dihydro-1H-quinolin-2-one]	≥ 100 µM
C[C@H](c1ccccc1)N(CCO)CCOc1ccc2c(c1)CCC(=O)N2 [ALDHI-3006, 6-[2-[2-hydroxyethyl-[(1R)-1-phenylethyl]amino]ethoxy]-3,4-dihydro-1H-quinolin-2-one]	≥ 100 µM
C[C@@H](c1ccccc1)N(CCO)CCOc1ccc2c(c1)CCC(=O)N2 [ALDHI-3007, 6-[2-[2-hydroxyethyl-[(1S)-1-phenylethyl]amino]ethoxy]-3,4-dihydro-1H-quinolin-2-one]	≥ 100 µM
CN(CCOc1ccc2c(c1)CCC(=O)N2)C(=O)c1cccc(F)c1 [ALDHI-3008, 3-fluoro-N-methyl-N-[2-[(2-oxo-3,4-dihydro-1H-quinolin-6-yl)oxy]ethyl]benzamide]	≥ 100 µM
CN(CCOc1ccc2c(c1)CCC(=O)N2)Cc1cccnc1 [ALDHI-3010, 6-[2-[methyl(3-pyridylmethyl)amino]ethoxy]-3,4-dihydro-1H-quinolin-2-one]	≥ 100 µM
CN(CCOc1ccc2c(c1)CCC(=O)N2)C(=O)c1cccnc1 [ALDHI-3013, N-methyl-N-[2-[(2-oxo-3,4-dihydro-1H-quinolin-6-yl)oxy]ethyl]pyridine-3-carboxamide]	≥ 100 µM
